Experimental data from ChEMBL document CHEMBL3885861, “Open TG-GATES”.

Species on record: Rattus norvegicus
Assay: Open TG-GATES - Regimen: Single
Assay type: toxicity, organism-based, Sprague-Dawley
Set-up: regimen Single, gender Male, age 6 weeks
Settings: in vivo, po, route gavage; for gamma-GTP / ALP / ALT / AST / BUN / CRE / Ca / Cl / DBIL / GLC / IP / K / LDH / Na / PL / RALB / TBIL / TC / TG / TP: tissue Plasma; for APTT / Bas / Eos / Fbg / Hb / Ht / Lym / MCH / MCHC / Mono / Neu / Plat / RBC / Ret / WBC: tissue Blood; for KIDNEY_L / KIDNEY_R / KIDNEY_TOTAL: tissue Kidney; for LIVER: tissue Liver

O=C(CCCN1CCC(O)(c2ccc(Cl)cc2)CC1)c1ccc(F)cc1 [HALOPERIDOL]
gamma-GTP (0 mg/kg, 24 h, dose level Control): 1 IU/L | TERMINAL_BW (3 mg/kg, 3 h, dose level Low): 203.1 g | APTT (3 mg/kg, 3 h, dose level Low): 16.9 s | Bas (3 mg/kg, 3 h, dose level Low): 0% | Eos (3 mg/kg, 3 h, dose level Low): 0.8% | Fbg (3 mg/kg, 3 h, dose level Low): 205.8 mg/dL | Hb (3 mg/kg, 3 h, dose level Low): 13.5 g/dL | Ht (3 mg/kg, 3 h, dose level Low): 40.4% | Lym (3 mg/kg, 3 h, dose level Low): 70.4% | MCH (3 mg/kg, 3 h, dose level Low): 21.8 pg | MCHC (3 mg/kg, 3 h, dose level Low): 33.5% | Mono (3 mg/kg, 3 h, dose level Low): 8.2% | Neu (3 mg/kg, 3 h, dose level Low): 20.6% | Plat (3 mg/kg, 3 h, dose level Low): 101.1 x10_4/uL | RBC (3 mg/kg, 3 h, dose level Low): 620.8 x10_4/ul | Ret (3 mg/kg, 3 h, dose level Low): 8.3% | WBC (3 mg/kg, 3 h, dose level Low): 102.1 x10_2/uL | KIDNEY_L (3 mg/kg, 3 h, dose level Low): 0.9 g | KIDNEY_R (3 mg/kg, 3 h, dose level Low): 0.9 g | KIDNEY_TOTAL (3 mg/kg, 3 h, dose level Low): 1.8 g | LIVER (3 mg/kg, 3 h, dose level Low): 9.6 g | ALP (3 mg/kg, 3 h, dose level Low): 1074.8 IU/L | ALT (3 mg/kg, 3 h, dose level Low): 42.2 IU/L | AST (3 mg/kg, 3 h, dose level Low): 61.2 IU/L | BUN (3 mg/kg, 3 h, dose level Low): 12.6 mg/dL | CRE (3 mg/kg, 3 h, dose level Low): 0.5 mg/dL | Ca (3 mg/kg, 3 h, dose level Low): 11.1 mg/dL | Cl (3 mg/kg, 3 h, dose level Low): 105.2 meq/L | DBIL (3 mg/kg, 3 h, dose level Low): 0.028 mg/dL | GLC (3 mg/kg, 3 h, dose level Low): 202.8 mg/dL | IP (3 mg/kg, 3 h, dose level Low): 10.4 mg/dL | K (3 mg/kg, 3 h, dose level Low): 4.7 meq/L | LDH (3 mg/kg, 3 h, dose level Low): 92.6 IU/L | Na (3 mg/kg, 3 h, dose level Low): 139.4 meq/L | PL (3 mg/kg, 3 h, dose level Low): 141.2 mg/dL | RALB (3 mg/kg, 3 h, dose level Low): 3.6 g/dL | TBIL (3 mg/kg, 3 h, dose level Low): 0.3 mg/dL | TC (3 mg/kg, 3 h, dose level Low): 78.6 mg/dL | TG (3 mg/kg, 3 h, dose level Low): 41.6 mg/dL | TP (3 mg/kg, 3 h, dose level Low): 5.7 g/dL | gamma-GTP (3 mg/kg, 3 h, dose level Low): 1.4 IU/L | TERMINAL_BW (3 mg/kg, 6 h, dose level Low): 200.5 g | APTT (3 mg/kg, 6 h, dose level Low): 16.6 s | Bas (3 mg/kg, 6 h, dose level Low): 0% | Eos (3 mg/kg, 6 h, dose level Low): 0.6% | Fbg (3 mg/kg, 6 h, dose level Low): 205.2 mg/dL | Hb (3 mg/kg, 6 h, dose level Low): 13.5 g/dL | Ht (3 mg/kg, 6 h, dose level Low): 40.5% | Lym (3 mg/kg, 6 h, dose level Low): 77% | MCH (3 mg/kg, 6 h, dose level Low): 21.7 pg | MCHC (3 mg/kg, 6 h, dose level Low): 33.3% | Mono (3 mg/kg, 6 h, dose level Low): 7.2% | Neu (3 mg/kg, 6 h, dose level Low): 15.2% | Plat (3 mg/kg, 6 h, dose level Low): 103.7 x10_4/uL | RBC (3 mg/kg, 6 h, dose level Low): 619.8 x10_4/ul | Ret (3 mg/kg, 6 h, dose level Low): 8.8% | WBC (3 mg/kg, 6 h, dose level Low): 90.9 x10_2/uL | KIDNEY_L (3 mg/kg, 6 h, dose level Low): 0.9 g | KIDNEY_R (3 mg/kg, 6 h, dose level Low): 0.9 g | KIDNEY_TOTAL (3 mg/kg, 6 h, dose level Low): 1.9 g | LIVER (3 mg/kg, 6 h, dose level Low): 9 g | ALP (3 mg/kg, 6 h, dose level Low): 897.8 IU/L | ALT (3 mg/kg, 6 h, dose level Low): 34.4 IU/L | AST (3 mg/kg, 6 h, dose level Low): 57.2 IU/L | BUN (3 mg/kg, 6 h, dose level Low): 9.6 mg/dL | CRE (3 mg/kg, 6 h, dose level Low): 0.4 mg/dL | Ca (3 mg/kg, 6 h, dose level Low): 10.6 mg/dL | Cl (3 mg/kg, 6 h, dose level Low): 105.8 meq/L | DBIL (3 mg/kg, 6 h, dose level Low): 0.034 mg/dL | GLC (3 mg/kg, 6 h, dose level Low): 184.4 mg/dL | IP (3 mg/kg, 6 h, dose level Low): 10.6 mg/dL | K (3 mg/kg, 6 h, dose level Low): 4.9 meq/L | LDH (3 mg/kg, 6 h, dose level Low): 81.6 IU/L | Na (3 mg/kg, 6 h, dose level Low): 139.2 meq/L | PL (3 mg/kg, 6 h, dose level Low): 142 mg/dL | RALB (3 mg/kg, 6 h, dose level Low): 3.6 g/dL | TBIL (3 mg/kg, 6 h, dose level Low): 0.3 mg/dL | TC (3 mg/kg, 6 h, dose level Low): 84.4 mg/dL | TG (3 mg/kg, 6 h, dose level Low): 32.4 mg/dL | TP (3 mg/kg, 6 h, dose level Low): 5.4 g/dL | gamma-GTP (3 mg/kg, 6 h, dose level Low): 1.6 IU/L | TERMINAL_BW (3 mg/kg, 9 h, dose level Low): 199.3 g | APTT (3 mg/kg, 9 h, dose level Low): 16.8 s | Bas (3 mg/kg, 9 h, dose level Low): 0% | Eos (3 mg/kg, 9 h, dose level Low): 0.6% | Fbg (3 mg/kg, 9 h, dose level Low): 204.8 mg/dL | Hb (3 mg/kg, 9 h, dose level Low): 13.6 g/dL | Ht (3 mg/kg, 9 h, dose level Low): 40.5% | Lym (3 mg/kg, 9 h, dose level Low): 70.4% | MCH (3 mg/kg, 9 h, dose level Low): 22 pg | MCHC (3 mg/kg, 9 h, dose level Low): 33.6% | Mono (3 mg/kg, 9 h, dose level Low): 9.6% | Neu (3 mg/kg, 9 h, dose level Low): 19.4% | Plat (3 mg/kg, 9 h, dose level Low): 102.7 x10_4/uL | RBC (3 mg/kg, 9 h, dose level Low): 621.4 x10_4/ul | Ret (3 mg/kg, 9 h, dose level Low): 9.5% | WBC (3 mg/kg, 9 h, dose level Low): 60.9 x10_2/uL | KIDNEY_L (3 mg/kg, 9 h, dose level Low): 0.9 g | KIDNEY_R (3 mg/kg, 9 h, dose level Low): 1 g | KIDNEY_TOTAL (3 mg/kg, 9 h, dose level Low): 1.9 g | LIVER (3 mg/kg, 9 h, dose level Low): 8.5 g | ALP (3 mg/kg, 9 h, dose level Low): 810.6 IU/L | ALT (3 mg/kg, 9 h, dose level Low): 28.4 IU/L | AST (3 mg/kg, 9 h, dose level Low): 56.6 IU/L | BUN (3 mg/kg, 9 h, dose level Low): 10.2 mg/dL | CRE (3 mg/kg, 9 h, dose level Low): 0.5 mg/dL | Ca (3 mg/kg, 9 h, dose level Low): 10.2 mg/dL | Cl (3 mg/kg, 9 h, dose level Low): 106.6 meq/L | DBIL (3 mg/kg, 9 h, dose level Low): 0.018 mg/dL | GLC (3 mg/kg, 9 h, dose level Low): 183.4 mg/dL | IP (3 mg/kg, 9 h, dose level Low): 10.6 mg/dL | K (3 mg/kg, 9 h, dose level Low): 4.6 meq/L | LDH (3 mg/kg, 9 h, dose level Low): 84 IU/L | Na (3 mg/kg, 9 h, dose level Low): 139.2 meq/L | PL (3 mg/kg, 9 h, dose level Low): 126.6 mg/dL | RALB (3 mg/kg, 9 h, dose level Low): 3.6 g/dL | TBIL (3 mg/kg, 9 h, dose level Low): 0.4 mg/dL | TC (3 mg/kg, 9 h, dose level Low): 71 mg/dL | TG (3 mg/kg, 9 h, dose level Low): 31.2 mg/dL | TP (3 mg/kg, 9 h, dose level Low): 5.5 g/dL | gamma-GTP (3 mg/kg, 9 h, dose level Low): 1.8 IU/L | TERMINAL_BW (3 mg/kg, 24 h, dose level Low): 213.8 g | APTT (3 mg/kg, 24 h, dose level Low): 15.9 s | Bas (3 mg/kg, 24 h, dose level Low): 0% | Eos (3 mg/kg, 24 h, dose level Low): 1.2% | Fbg (3 mg/kg, 24 h, dose level Low): 198.8 mg/dL | Hb (3 mg/kg, 24 h, dose level Low): 13.6 g/dL | Ht (3 mg/kg, 24 h, dose level Low): 40.8% | Lym (3 mg/kg, 24 h, dose level Low): 75.6% | MCH (3 mg/kg, 24 h, dose level Low): 22.6 pg | MCHC (3 mg/kg, 24 h, dose level Low): 33.3% | Mono (3 mg/kg, 24 h, dose level Low): 6% | Neu (3 mg/kg, 24 h, dose level Low): 17.2% | Plat (3 mg/kg, 24 h, dose level Low): 105.6 x10_4/uL | RBC (3 mg/kg, 24 h, dose level Low): 601 x10_4/ul | Ret (3 mg/kg, 24 h, dose level Low): 9.4% | WBC (3 mg/kg, 24 h, dose level Low): 75.9 x10_2/uL | KIDNEY_L (3 mg/kg, 24 h, dose level Low): 1 g | KIDNEY_R (3 mg/kg, 24 h, dose level Low): 1 g | KIDNEY_TOTAL (3 mg/kg, 24 h, dose level Low): 1.9 g | LIVER (3 mg/kg, 24 h, dose level Low): 11.3 g | ALP (3 mg/kg, 24 h, dose level Low): 957.8 IU/L | ALT (3 mg/kg, 24 h, dose level Low): 35 IU/L | AST (3 mg/kg, 24 h, dose level Low): 59.2 IU/L | BUN (3 mg/kg, 24 h, dose level Low): 21.2 mg/dL | CRE (3 mg/kg, 24 h, dose level Low): 0.6 mg/dL | Ca (3 mg/kg, 24 h, dose level Low): 11.3 mg/dL | Cl (3 mg/kg, 24 h, dose level Low): 105.4 meq/L | DBIL (3 mg/kg, 24 h, dose level Low): 0.026 mg/dL | GLC (3 mg/kg, 24 h, dose level Low): 180.8 mg/dL | IP (3 mg/kg, 24 h, dose level Low): 7.9 mg/dL | K (3 mg/kg, 24 h, dose level Low): 5 meq/L | LDH (3 mg/kg, 24 h, dose level Low): 104.8 IU/L | Na (3 mg/kg, 24 h, dose level Low): 139.2 meq/L | PL (3 mg/kg, 24 h, dose level Low): 156.6 mg/dL | RALB (3 mg/kg, 24 h, dose level Low): 3.8 g/dL | TBIL (3 mg/kg, 24 h, dose level Low): 0.4 mg/dL | TC (3 mg/kg, 24 h, dose level Low): 80.6 mg/dL | TG (3 mg/kg, 24 h, dose level Low): 102.4 mg/dL | TP (3 mg/kg, 24 h, dose level Low): 5.9 g/dL
